Here are results for 2 compounds from patent US20080153792A1, “Drug Identification and Treatment Method” (priority 2006, published 2008).

The test system of test [1] is γ-interferon production by human whole blood. Put plainly: γ-interferon production in human whole blood exposed to LPS. The settings on record: LPS 24 hours; 16α-bromoepiandrosterone at 100 ng/mL. The class given is cell-based. As for the experimental part: Anti-inflammation activity in human cells in vitro. […] The amount of γ-interferon was measured in the growth medium when the cells had been incubated in the presence of LPS for 24 hours.

The test system of test [2] is mice given a lethal amount of LPS. Put plainly: lethal shock protocol, lethal amount of bacterial LPS. The class given is in vivo, mouse. The following applies: for survival 72 hours after LPS: first protocol. As for the experimental part: Treatment of lethal inflammation/shock. Two compounds, 16α-bromoepiandrosterone (3β-hydroxy-16α-bromoandrostane-17-one) and 3β,16α-dihydroxy-17-oxoandrostane, were used in a lethal shock protocol. In one protocol, 3 mg of 16α-bromoepiandrosterone was administered to one group of animals by oral gavage, while another group received 3 mg of 16α-bromoepiandrosterone by subcutaneous injection. A group of control animals received a placebo control. In this protocol, the 16α-bromoepiandrosterone was administered to mice at 24 hours before and at 1 hour after administration of a lethal amount of bacterial lipopolysaccharide (LPS). By the end of the observation period, 72 hours after LPS administration, none of the vehicle treated placebo control animals had survived, while 65% of animals that received 16α-bromoepiandrosterone by oral administration survived. 50% of the animals that received 16α-bromoepiandrosterone by subcutaneous injection survived. Animals that survived for 72 hours all recovered from the LPS exposure.
In a second assay, 16α-bromoepiandrosterone or 3β,16α-dihydroxy-17-oxoandrostane was administered to mice by oral gavage at 24 hours before and 1 hour after administration of a lethal amount of LPS. A vehicle treated group of animals was used as the placebo control.

Another test has as its system Pseudomonas aeruginosa. Put plainly: clearance of chronic lung infection in CFTR mice. Format: in vivo. The following applies: 40 mg/kg; day 10; p=<0.04 vs vehicle. As to the method:
Clearance of bacteria from lung tissue. The capacity of 16α-bromoepiandrosterone to clear a Pseudomonas aeruginosa infection from lung tissue was shown using a previously published protocol, A. van Heeckeren et al., J. Clin. Invest., 100(11):2810-2815 […]; A. van Heeckeren et al., Am. J. Respir. Crit. Care Med., 161:271-279 2000. The protocol was conducted in CFTR mice, which are used as an animal model for human cystic fibrosis, S. D. Freedman et al., Proc. Natl. Acad. Sci. USA, 96(24):13995-14000 1999; W. Zeng et al., Am. J. Physiol. Cell. Physiol. […] Establishment of chronic P. aeruginosa infection using agarose beads containing bacteria (50 μL containing about 6.1×10^4 CFU/animal) was published earlier, J. R. Starke et al., Pediatr. Res., 22:698-702 1987. Two groups of mice (n=9 for each group) were treated with 40 mg/kg of 16α-bromoepiandrosterone or vehicle (control) and the bacterial burden in the lungs of the animals was determined at 10 days after introduction of the agarose beads into the lung.

In test [3] the test system is CD4^+CD25^+ T regulatory cells. Put plainly: CD4+CD25+ T regulatory cells after adoptive transfer of CD4+CD25- T cells. Format: in vivo, mouse. The settings on record: 1 mg/animal/day s.c. for 14 days. As for the experimental part:
Inhibition of the generation of CD4^+CD25^+ T regulatory cells or their activity in vivo. Purified CD4^+CD25^− T cells (5×10^6 cells) from congenic B6.5JL mice (CD45.1) per group were adoptively transferred into each of five B6 mice (CD45.2). The purified CD4^+CD25^− T cells were obtained by fluorescence activated cell sorting (FACS) of the donor cells at least twice. Vehicle (0.1% carboxymethylcellulose, 0.9% saline, 2% tween 80, 0.05% phenol) or 16α-bromoepiandrosterone in vehicle (1 mg/animal/day in 100 μL vehicle) was injected subcutaneously before transfer of the cells from the CD45.1 donor animals and the injections were continued daily for 14 days. Thymus, lymph nodes and spleens were collected from the animals at day 15. Samples of thymus, lymph node and spleen were obtained from individuals, and the cells were labeled with fluorescent antibody that bound to CD4, CD25, CD103 or Foxp3. The cells were then analyzed by flow cytometry to enumerate the numbers of the various cell types. The remainder of cells from lymph nodes and spleen of each treatment group were pooled, pre-enriched for CD4^+CD25^+ cells and then analyzed for CD4^+CD25^+ that arose from the host (endogenous CD45.2 cells) and from donor cells (CD45.1 cells that converted from the CD4^+CD25^− donor phenotype to the CD4^+CD25^+ phenotype after residing in vivo for 15 days). The cells were analyzed by cell sorter. To test for regulatory function, varying numbers of purified converted CD45.1 or endogenous CD45.2 CD4^+CD25^+ cells were co-cultured with 2000 CD4^+CD25^− responder cells, 1×10^5 irradiated spleen cells as antigen presenting cells, and […] of anti-CD3 antibody. Fresh CD4^+CD25^+ cells were used as controls. Proliferation was determined by measurement of ^3H-thymidine uptake 4 days after initiation of culture.

Test [4] deals with mice, LPS induced lung injury. Put plainly: lung injury by sublethal LPS to trachea and lungs, BAL cell count. Format: in vivo, mouse. The settings on record: oral gavage 24 h before and 1 h after 100 μg LPS; 48 hours. As for the experimental part: In another assay, the capacity of 16α-bromoepiandrosterone and 3β,16α-dihydroxy-17-oxoandrostane to protect against lung injury induced by exposure to a sublethal amount of LPS in mice was shown. In this assay, the compounds, sterile saline (negative control) or vehicle (vehicle control) were administered to groups of 5 mice by oral gavage at 24 hours before and 1 hour after administration of 100 μg of LPS to the trachea and lungs of animals under light anesthesia. At 48 hours the animals were sacrificed and samples were obtained from the lungs of the animals by bronchiolar alveolar lavage (BAL). The numbers of cells in the BAL fluid were counted, with high numbers of cells showing lung inflammation and damage. In this assay, cells that mediate inflammation and lung damage infiltrate into the lungs in response to the presence of the LPS. In the negative control and vehicle control groups, the BAL fluid contained about 6×10^7 cells/mL. […] Other compounds, e.g., 17α-ethynylandrost-5-ene-3β,7β,17β-triol or 17β-aminoandrost-5-ene-3β-ol, can be characterized in a similar manner.

The test system of the next test is NF-κB. Put plainly: NF-κB-bla THP-1 β-lactamase reporter assay. Format: cell-based, human. The settings on record: this protocol. Background: In a reporter assay the amount or activity of a reporter protein is the signal.
Test [5] concerns CF-1 mice, hemorrhagic shock. Put plainly: hemorrhagic shock and ischemia with abdominal surgery. The following applies: 2 mg in resuscitation fluid; vehicle control 1/15. Format: in vivo, mouse. As for the experimental part:
The effect of compounds on hemorrhagic shock and ischemia was examined in another protocol. CF-1 mice at an age of 6-8 months were anesthetized using methoxyfluorothane and prepared for abdominal surgery. Each mouse was tested for the level of respiration, eye blink response and response to a skin pinch to ensure a level of anesthesia appropriate for surgery. The duration of abdominal surgery was approximately two hours, during which time 35-40% of the animal's blood volume is removed over a […]. The removal of blood in a controlled manner simulates the effect of hemorrhagic shock. A slow intravenous infusion of the removed blood and a 2× volume of resuscitation fluid (lactated Ringers solution) into a central vein was made. The resuscitation fluid was supplemented with either 2 mg dehydroepiandrosterone-3β-sulfate or the excipient as a placebo. The peritoneum and overlying skin were sutured separately. Animals were maintained at 38°-39° C. until recovery is complete. Under these conditions, most of the placebo-treated animals died within 24-48 hours. […] Mesenteric lymph nodes (MLN) were removed and cultured on blood agar plates and the number of CFUs counted following culturing. The liver was removed and the amount malondialdehyde was measured.

Turning to `C[C@]12CC[C@H](O)C[C@@H]1CC[C@@H]1[C@@H]2CC[C@]2(C)C(=O)[C@H](Br)C[C@@H]12` [16α-bromoepiandrosterone], in test [1], the “production of γ-interferon” value is “Reduced production”. Also, the “survival 72 hours after LPS” value came out at 65% in test [2] (3 mg by oral gavage 24 h before and 1 h after LPS); 50% in test [2] (3 mg by subcutaneous injection 24 h before and 1 h after LPS). Besides, in test [2] (second assay, oral gavage 24 h before and 1 h after LPS), the “survival at 72 hours” value is given as 80%. For the same compound, the “bacterial burden in the lungs” value in the test with Pseudomonas aeruginosa was “reduced”. The “average donor CD45.1 CD4^+CD25^+ cell number in spleens” value in test [3] (day 15, vehicle 1.97×10^5) was 0.62×10^5 cells. In test [3] (day 15, vehicle 3.10×10^5), the “average endogenous CD45.2 CD4^+CD25^+ cells in the thymus” value is 1.59×10^5. The “average endogenous CD45.2 CD4^+CD25^+ cell number in spleens” value in test [3] (day 15, vehicle 9.54×10^6) is 5.49×10^6 cells. Also, the “proportion of endogenous CD45.2 CD4^+CD25^+CD103^+ Treg cells in spleens” value in test [3] (vehicle 13.85%) came to 13.40%. In test [3] (vehicle 29.06%), the “average of donor CD45.1 CD4^+CD25^+CD103^+ cells of total donor CD4^+CD25^+ cells in spleens” value is 9.63%. The “cell counts in the BAL fluid” value in test [4] is reported as “about 4.4×10^7 cells/mL”. For the same compound, the “maximum NF-κB inhibition” value with NF-κB was found to be 100%.

Take `C[C@]12CC[C@H](OS(=O)(=O)O)CC1=CC[C@@H]1[C@@H]2CC[C@]2(C)C(=O)CC[C@@H]12` [dehydroepiandrosterone-3β-sulfate]: the survival in test [5] was 15/15.
